Assay results published in publication PMC11122421 (Marine Drugs, 2024).
Where a SMILES comes first, the peptide text is derived from it. Bridges are numbered along the chain shown (N, C = ends).

Assays:
rat α3β2 nAChR = molecular target: T1, rat α3β2 nAChR (Rattus norvegicus, UniProt P04757+P12390); experiment: cell-based
T1 construct: expressed in transfected cells; host or cells: Xenopus laevis oocytes injected with cRNA; plasmids from J. Michael McIntosh (University of Utah)

rat α6/α3β4 nAChRs = molecular target: T2, rat α6/α3β4 nAChRs (Rattus norvegicus, UniProt P04757+P12392+P43143); format: cell-based
T2 construct: expressed in transfected cells; host or cells: Xenopus laevis oocytes injected with cRNA; plasmids from J. Michael McIntosh (University of Utah)

rat α7 nAChRs = molecular target: T3, rat α7 nAChRs (Rattus norvegicus, UniProt Q05941); experiment: cell-based; format: cell-based
T3 construct: expressed in transfected cells; host or cells: Xenopus laevis oocytes injected with cRNA; plasmids from J. Michael McIntosh (University of Utah)
T3 sequence (Q05941 23-502): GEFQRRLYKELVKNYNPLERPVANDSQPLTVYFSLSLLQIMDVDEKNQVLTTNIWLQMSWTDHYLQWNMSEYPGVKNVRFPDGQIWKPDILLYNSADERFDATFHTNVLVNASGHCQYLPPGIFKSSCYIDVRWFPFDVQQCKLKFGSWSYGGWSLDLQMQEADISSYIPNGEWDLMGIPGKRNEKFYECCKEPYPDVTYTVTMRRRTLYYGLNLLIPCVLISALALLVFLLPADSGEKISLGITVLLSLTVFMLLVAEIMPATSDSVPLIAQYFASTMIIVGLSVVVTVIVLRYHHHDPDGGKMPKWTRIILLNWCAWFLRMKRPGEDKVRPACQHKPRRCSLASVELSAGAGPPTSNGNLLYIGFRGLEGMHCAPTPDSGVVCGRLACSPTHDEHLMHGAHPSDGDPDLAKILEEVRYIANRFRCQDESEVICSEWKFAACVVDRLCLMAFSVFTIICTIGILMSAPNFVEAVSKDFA

T2 sequence (P43143+P04757 fused with the stated changes): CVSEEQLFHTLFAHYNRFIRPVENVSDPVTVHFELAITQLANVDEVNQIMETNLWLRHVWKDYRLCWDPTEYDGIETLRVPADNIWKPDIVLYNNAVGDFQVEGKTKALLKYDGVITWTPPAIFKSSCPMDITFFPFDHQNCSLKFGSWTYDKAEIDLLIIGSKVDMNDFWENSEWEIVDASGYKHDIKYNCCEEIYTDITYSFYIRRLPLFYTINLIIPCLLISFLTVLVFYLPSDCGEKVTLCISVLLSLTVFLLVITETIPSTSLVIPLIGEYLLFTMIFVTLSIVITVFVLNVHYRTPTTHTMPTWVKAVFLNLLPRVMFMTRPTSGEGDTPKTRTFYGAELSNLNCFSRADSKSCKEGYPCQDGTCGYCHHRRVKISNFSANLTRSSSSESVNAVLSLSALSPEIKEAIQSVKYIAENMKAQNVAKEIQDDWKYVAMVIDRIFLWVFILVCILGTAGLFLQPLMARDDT
T2 sequence (P12392 21-495): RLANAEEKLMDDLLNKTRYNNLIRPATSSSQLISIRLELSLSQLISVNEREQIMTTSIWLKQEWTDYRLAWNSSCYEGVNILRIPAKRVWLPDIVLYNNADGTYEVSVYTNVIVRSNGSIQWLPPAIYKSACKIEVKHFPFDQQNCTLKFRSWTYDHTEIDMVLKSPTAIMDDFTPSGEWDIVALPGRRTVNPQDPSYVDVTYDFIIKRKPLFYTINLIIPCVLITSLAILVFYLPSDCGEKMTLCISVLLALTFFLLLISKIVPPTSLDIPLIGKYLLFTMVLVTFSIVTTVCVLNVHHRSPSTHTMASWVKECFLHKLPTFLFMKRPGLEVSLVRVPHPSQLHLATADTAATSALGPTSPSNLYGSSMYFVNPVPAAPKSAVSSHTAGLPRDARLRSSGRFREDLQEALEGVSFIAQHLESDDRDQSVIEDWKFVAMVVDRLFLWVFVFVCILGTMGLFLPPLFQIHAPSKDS
T1 sequence (P04757 26-499 limits assumed): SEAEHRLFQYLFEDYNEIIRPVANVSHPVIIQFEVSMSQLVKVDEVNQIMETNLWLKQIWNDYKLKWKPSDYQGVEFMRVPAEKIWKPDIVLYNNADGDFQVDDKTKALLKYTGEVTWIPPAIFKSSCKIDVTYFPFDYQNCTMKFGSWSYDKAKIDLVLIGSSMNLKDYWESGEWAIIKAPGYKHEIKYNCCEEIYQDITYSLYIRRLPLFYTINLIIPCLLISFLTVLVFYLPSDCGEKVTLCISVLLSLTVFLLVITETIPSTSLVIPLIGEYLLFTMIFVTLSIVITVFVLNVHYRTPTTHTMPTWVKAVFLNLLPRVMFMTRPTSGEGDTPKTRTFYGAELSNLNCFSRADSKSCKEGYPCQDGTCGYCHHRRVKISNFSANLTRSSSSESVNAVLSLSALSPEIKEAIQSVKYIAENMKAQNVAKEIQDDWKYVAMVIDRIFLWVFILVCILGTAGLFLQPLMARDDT
T1 sequence (P12390 25-500 limits assumed): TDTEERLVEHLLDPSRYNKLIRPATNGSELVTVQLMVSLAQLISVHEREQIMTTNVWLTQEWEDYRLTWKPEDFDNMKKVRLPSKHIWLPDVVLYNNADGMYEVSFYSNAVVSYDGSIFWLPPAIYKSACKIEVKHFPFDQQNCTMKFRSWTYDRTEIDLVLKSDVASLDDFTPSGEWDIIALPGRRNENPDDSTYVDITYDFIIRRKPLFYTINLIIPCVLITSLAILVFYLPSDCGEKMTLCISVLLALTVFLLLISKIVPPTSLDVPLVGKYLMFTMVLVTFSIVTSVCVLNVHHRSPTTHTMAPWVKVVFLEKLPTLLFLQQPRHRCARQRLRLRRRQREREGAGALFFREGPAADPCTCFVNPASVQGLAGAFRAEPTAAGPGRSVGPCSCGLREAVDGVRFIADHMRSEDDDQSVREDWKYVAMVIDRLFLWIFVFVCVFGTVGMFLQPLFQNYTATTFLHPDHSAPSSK

C[C@@H]1NC(=O)[C@@H]2CSSC[C@H](NC(=O)CN)C(=O)N[C@@H](CSSC[C@@H](C(N)=O)NC(=O)[C@H](Cc3c[nH]cn3)NC(=O)[C@H](CCC(=O)O)NC(=O)[C@H](Cc3c[nH]cn3)NC1=O)C(=O)N[C@@H](CO)C(=O)N[C@@H](CC(N)=O)C(=O)N1CCC[C@H]1C(=O)N1CCC[C@H]1C(=O)N2 [[Q1G, ΔR14]LvIB] (H-GCCSNPPCAHEHC-NH2; disulfide 2-8, 3-13)
inhibition rate (rat α3β2 nAChR): 97 ± 2%
inhibition rate (rat α6/α3β4 nAChRs): 88 ± 5%
Hill Slope (rat α7 nAChRs): 0.99 (0.8–1.19)
inhibition rate of ACh-evoked current (rat α7 nAChRs): 98 ± 0.12%
time to ~90% current restoration after block (recovery/washout) (rat α7 nAChRs): ≤ 17 min
